Measurements as given in PMC11740379, “Novel Enyne-Modified 1,4-Thiazepines as Epidermal Growth Factor Receptor Inhibitors: Anticancer and Computational Studies” (ACS Omega, 2024).
Where two headings read alike, the source gives them in different places.

How the values were obtained:
[1] = XTT cytotoxicity assay, non-tumorigenic cells; format: cell-based, human; conditions: human, HEK-293 cells (nontumorigenic), read-out: cell viability
Experimental: (§1) Human cell lines for breast cancer (MCF-7), lung cancer (A549), prostate cancer (PC-3), and nontumorigenic HEK-293 were sourced from the Health Protection Agency (U.K.) and the Interlab Cell Line Collection (Italy). The cells were cultured in RPMI medium (Sigma) supplemented with 10% heat-inactivated fetal bovine serum, 1% penicillin, and 1% L-glutamine, and incubated in a humidified CO2 atmosphere at 37 °C.
(§2) To evaluate the cytotoxic effects of TZEPs, which were dissolved in dimethyl sulfoxide (DMSO), the XTT assay (2,3-bis(2-methoxy-4-nitro-5-sulfophenyl)-2H-tetrazolium-5-carboxanilide) was employed. Cells were plated in 96-well plates at a density of 10^4 cells per well and exposed to varying concentrations of TZEPs (ranging from 1 to 250 μM) for 24, 48, and 72 h. Following the incubation, 100 μL of XTT was added to each well, and the plates were incubated for an additional 4 h at 37 °C. The resulting color change was measured by recording the absorbance at 570 nm using a microplate reader (Tecan).
(§3) The IC50 values, which indicate the concentration of the compound required to inhibit 50% of cancer cell proliferation, were determined using Biosoft CalcuSyn 2.1 software. […] Conversely, an SI less than 1 means the drug is more toxic to normal cells than to target cells, which is undesirable in therapeutic contexts. In the literature, a selectivity index of 2 or higher is generally considered significant, implying that the compound selectively targets diseased cells with relatively low toxicity to healthy cells.[15]

HEK-293 cells = experiment: XTT cytotoxicity assay, non-tumorigenic cells; format: cell-based, human; conditions: Homo sapiens, HEK293; XTT assay; exposure time of the IC50 not stated (24, 48, 72 h tested)
Experimental: as §1, §2, §3

PC-3 cells = experiment: XTT cytotoxicity assay, prostate cancer cells; format: cell-based, human
Experimental: The cells were cultured in RPMI medium (Sigma) supplemented with 10% heat-inactivated fetal bovine serum, 1% penicillin, and 1% L-glutamine, and incubated in a humidified CO2 atmosphere at 37 °C.
as §2, with “Cells were plated in 96-well plates at a density of 10^4 cells per well and exposed to varying concentrations of TZEPs (ranging from 1 to 250 μM) for 24, 48, and 72 h.” left out
Conversely, an SI less than 1 means the drug is more toxic to normal cells than to target cells, which is undesirable in therapeutic contexts.

Bax mRNA = experiment: qRT-PCR of apoptosis-related mRNA; format: cell-based, human; conditions: 72 h, vs untreated control
Experimental: (§4) To measure the mRNA expression levels of apoptosis-related genes B-cell lymphoma 2 (Bcl-2), Bcl-2-associated X protein (Bax), Cyclin-dependent kinase 2 (CDK2), and Cyclin E, total mRNA was extracted from cells treated with compound 6f using Trizol reagent (Sigma). cDNA was synthesized from the total mRNA using the Qiagen cDNA synthesis kit according to the manufacturer’s instructions. The following primers, each at a concentration of 350 nM, were employed: Bcl-2; forward ([…]), reverse ([…]); Bax; forward ([…]), reverse ([…]); Caspase-8; forward ([…]), reverse ([…]); Caspase-9; forward (TGTCTACGGCACAGATGGA), reverse (GGACTCGTCTTCAGGGGA); EGFRWT: forward ([…]), reverse (CCTGTGCCAGGGACCTTAC−); EGFRT790 M forward ([…]), reverse ([…]); human GAPDH; forward ([…]), reverse (AGATGGTGATGGGCTTCCC). The PCR mix was prepared with 1× buffer containing 0.2 mM dNTPs, 1.6 mM MgCl2, […] of each primer set, cDNA, and 0.25 U Taq polymerase. The PCR conditions were as follows: an initial denaturation at 95 °C for 60 s, followed by 50 cycles of 95 °C for 15 s, 60 °C for 15 s, and 72 °C for 60 s. The cycle threshold (CT) for each replicate was normalized to the average CT of the endogenous control (GAPDH). The relative quantification of gene expression was calculated using the comparative CT method.[17]

Bcl-2 mRNA = experiment: qRT-PCR of apoptosis-related mRNA; format: cell-based, human; conditions: 72 h, vs untreated control
Experimental: as §4

Caspase-8 mRNA = experiment: qRT-PCR of apoptosis-related mRNA; format: cell-based, human; conditions: 72 h, vs untreated control
Experimental: as §4

Caspase-9 mRNA = experiment: qRT-PCR of apoptosis-related mRNA; format: cell-based, human; conditions: 72 h, vs untreated control
Experimental: as §4

EGFRWT mRNA = experiment: qRT-PCR of EGFR mRNA expression; format: cell-based, human; conditions: vs untreated control
Experimental: as §4

EGFRT790M kinase = EGFRT790M kinase (Homo sapiens, UniProt P00533, T790M); experiment: EGFR kinase inhibition assay (HTRF KinEASE-TK); format: biochemical
EGFRT790M kinase, sequence (P00533 25-1210 T790M): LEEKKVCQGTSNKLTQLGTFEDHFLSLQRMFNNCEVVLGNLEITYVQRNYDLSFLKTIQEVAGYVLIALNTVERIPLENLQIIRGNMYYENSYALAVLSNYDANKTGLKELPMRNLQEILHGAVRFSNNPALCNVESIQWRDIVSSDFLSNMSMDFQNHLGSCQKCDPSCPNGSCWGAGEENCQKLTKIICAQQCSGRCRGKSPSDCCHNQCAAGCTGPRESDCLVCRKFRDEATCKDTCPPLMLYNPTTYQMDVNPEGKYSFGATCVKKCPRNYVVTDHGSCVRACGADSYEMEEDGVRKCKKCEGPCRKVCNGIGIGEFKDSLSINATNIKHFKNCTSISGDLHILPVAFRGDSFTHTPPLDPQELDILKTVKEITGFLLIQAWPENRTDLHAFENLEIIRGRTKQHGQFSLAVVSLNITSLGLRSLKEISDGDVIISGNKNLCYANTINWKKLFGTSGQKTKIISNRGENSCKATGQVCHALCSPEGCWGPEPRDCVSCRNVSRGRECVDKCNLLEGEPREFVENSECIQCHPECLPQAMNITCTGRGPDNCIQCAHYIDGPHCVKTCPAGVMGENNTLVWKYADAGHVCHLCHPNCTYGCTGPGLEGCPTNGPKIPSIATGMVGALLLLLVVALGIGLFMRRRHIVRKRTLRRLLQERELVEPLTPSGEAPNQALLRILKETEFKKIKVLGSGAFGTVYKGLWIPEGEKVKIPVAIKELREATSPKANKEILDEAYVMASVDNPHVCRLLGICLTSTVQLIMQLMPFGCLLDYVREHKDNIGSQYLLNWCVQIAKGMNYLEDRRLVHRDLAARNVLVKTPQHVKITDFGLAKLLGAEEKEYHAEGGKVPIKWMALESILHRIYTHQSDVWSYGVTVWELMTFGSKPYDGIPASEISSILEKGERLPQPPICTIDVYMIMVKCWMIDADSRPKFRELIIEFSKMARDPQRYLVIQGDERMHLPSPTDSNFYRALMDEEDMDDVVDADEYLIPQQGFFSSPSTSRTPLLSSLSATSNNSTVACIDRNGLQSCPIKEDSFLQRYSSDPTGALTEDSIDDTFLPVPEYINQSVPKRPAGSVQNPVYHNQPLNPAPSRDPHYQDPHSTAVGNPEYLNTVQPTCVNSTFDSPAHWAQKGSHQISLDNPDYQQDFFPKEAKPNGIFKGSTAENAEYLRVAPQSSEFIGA
Experimental: The inhibitory effects of the target compounds on various EGFR kinases were assessed using a homogeneous time-resolved fluorescence (HTRF) assay, employing the HTRF KinEASE-TK kit (Cat# 62TK0PEC, Cisbio).[18] TZEP7 was tested at a range of diluted concentrations in the presence of 1% dimethyl sulfoxide (DMSO), with the kinase and compounds preincubated for 5 min. The reactions were initiated by adding ATP and TK-substrate-biotin, followed by a 60 min incubation at room temperature. The reactions were then stopped using a stop buffer containing 62.5 nM Strep-XL665 and TK antibody (Ab)-Cryptate. After a 1 h incubation of the plate, readings were taken on a microplate reader under standard HTRF conditions. IC50 values were calculated using GraphPad Prism 5.0 software. Each reaction was duplicated, and at least three independent determinations were conducted. The data were analyzed using GraphPad Prism.

[2] = XTT cytotoxicity assay, non-tumorigenic cells; format: cell-based; conditions: human, HEK-293 cells (nontumorigenic); HEK293, 0.1 μM; read-out: cell viability

## Cc1cc(C2=NCC(=CC#Cc3ccccc3)SC(c3ccc(Cl)cc3)=C2)ccc1F [TZEP7]
[1]; HEK293, 1 μM
  viability at 1 µM: 57.1%
[1]; HEK293, 10 μM
  viability at 10 µM: 44.1%
[1]; HEK293, 50 μM
  viability at 50 µM: 31.3%
[1]; HEK293, 100 μM
  viability at 100 µM: 24.2%
HEK-293 cells
  IC50: 54300 ± 900 nM
PC-3 cells; Homo sapiens, PC-3, XTT assay, exposure time of the IC50 not stated (24, 48, 72 h tested), read-out: IC50, prostate cancer (PC-3)
  IC50: 16900 ± 1600 nM
PC-3 cells; Homo sapiens, PC-3, 0.1 μM, read-out: cell viability
  viability at 0.1 µM: 83%
PC-3 cells; Homo sapiens, PC-3, 1 μM, read-out: cell viability
  viability at 1 µM: 71%
PC-3 cells; Homo sapiens, PC-3, 10 μM, read-out: cell viability
  viability at 10 µM: 22%
PC-3 cells; Homo sapiens, PC-3, 50 μM, read-out: cell viability
  viability at 50 µM: 18%
PC-3 cells; Homo sapiens, PC-3, 100 μM, read-out: cell viability
  viability at 100 µM: 12%
PC-3 cells; versus normal cells HEK-293
  Selectivity index (SI), prostate cancer (PC-3): 3.21
Bax mRNA; A549, IC50 concentration
  increase of Bax mRNA level: 4.8 fold
Bax mRNA; MCF-7, IC50 concentration
  increase of Bax mRNA level: 4.1 fold
Bax mRNA; PC-3, IC50 concentration
  increase of Bax mRNA level: 4.3 fold
Bcl-2 mRNA; A549, IC50 concentration
  reduction of Bcl-2 mRNA level: 3.3 fold
Bcl-2 mRNA; MCF-7, IC50 concentration
  reduction of Bcl-2 mRNA level: 3.4 fold
Bcl-2 mRNA; PC-3, IC50 concentration
  reduction of Bcl-2 mRNA level: 4.3 fold
Caspase-8 mRNA; A549, IC50 concentration
  induction of Caspase-8 mRNA level: 3.8 fold
Caspase-8 mRNA; MCF-7, IC50 concentration
  induction of Caspase-8 mRNA level: 4.2 fold
Caspase-8 mRNA; PC-3, IC50 concentration
  induction of Caspase-8 mRNA level: 5.4 fold
Caspase-9 mRNA; A549, IC50 concentration
  induction of Caspase-9 mRNA level: 3.7 fold
Caspase-9 mRNA; MCF-7, IC50 concentration
  induction of Caspase-9 mRNA level: 4.4 fold
Caspase-9 mRNA; PC-3, IC50 concentration
  induction of Caspase-9 mRNA level: 3.6 fold
EGFRWT mRNA; A549, 72 h
  downregulation of EGFRWT mRNA: 4.6 fold
EGFRWT mRNA; MCF-7, 72 h
  downregulation of EGFRWT mRNA: 3.8 fold
EGFRWT mRNA; PC-3, 72 h
  downregulation of EGFRWT mRNA: 3.4 fold
EGFRT790M kinase
  IC50: 280 nM
EGFRT790M kinase; A549 cells
  IC50: 220 nM
EGFRT790M kinase; MCF-7 cells
  IC50: 290 nM
[2]
  viability at 0.1 µM: 87.3%
